Assay results published in ChEMBL document CHEMBL1201862, “PubChem BioAssay data set” (2004).
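Interpolation was linear, between the two tested concentrations surrounding the appropriate level; five concentrations were tested over 48 hours in 96-well plates. GI50 = concentration required for 50% inhibition of growth.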 Activity calls are given as the source filed them. No stated cut-off is given here; in the data, active = GI50 up to about 1.1 µM and inactive = higher.

Columns and labels:
Test in all cases: NCI tumour cell line growth inhibition, 48 h
[1] = tested on: MDA-MB-435
[2] = tested on: KM12
[3] = tested on: DU-145
[4] = tested on: MOLT-4
[5] = tested on: UACC-62
[6] = tested on: SF-539
[7] = tested on: OVCAR-3
[8] = tested on: K562
[9] = tested on: CAKI-1
[10] = tested on: OVCAR-8
[11] = tested on: HCC 2998
[12] = tested on: Hs-578T
[13] = tested on: SK-OV-3
[14] = tested on: HT-29
[15] = tested on: MDA-N
[16] = tested on: PC-3
[17] = tested on: SN12C
[18] = tested on: T47D
[19] = tested on: MDA-MB-231

| SMILES | GI50 [1] | GI50 [2] | GI50 [3] | GI50 [4] | GI50 [5] | GI50 [6] | GI50 [7] | GI50 [8] | GI50 [9] | GI50 [10] | GI50 [11] | GI50 [12] | GI50 [13] | GI50 [14] | GI50 [15] | GI50 [16] | GI50 [17] | GI50 [18] | GI50 [19] |
| --- | --- | --- | --- | --- | --- | --- | --- | --- | --- | --- | --- | --- | --- | --- | --- | --- | --- | --- | --- |
| CC[C@H]1C=CCC[C@@]2(C[C@@H]3CC[C@H]4[C@H](C(=O)OCCCCCCCCCCCCCCCC(=O)N(CCCN)C[C@@H](O)CCN)[C@]5(CCC[C@@H](C)O5)NC(=[N+]34)N2)O1 | 0.338 µM (active) | 0.509 µM (active) | 1.1 µM (active) | 0.27 µM (active) | 0.202 µM (active) | 1.49 µM (inactive) | 1.41 µM (inactive) | 0.256 µM (active) | 0.532 µM (active) | 0.693 µM (active) | 0.575 µM (active) | 1.59 µM (inactive) | 1.65 µM (inactive) | 0.387 µM (active) | 0.407 µM (active) | 0.7 µM (active) | 0.776 µM (active) |  |  |
| Cc1c(O)c(OC2OC(CO)C(O)C(O)C2O)cc2c1C=C[C@@H]1[C@@]2(C)C(=O)C[C@]2(C)[C@@H]([C@@](C)(O)C(O)/C=C/C(C)(C)O)[C@H](O)C[C@@]12C (stereo partly specified) | > 100 µM (inactive) | > 100 µM (inactive) | > 100 µM (inactive) | > 100 µM (inactive) | > 100 µM (inactive) | > 100 µM (inactive) | > 100 µM (inactive) | > 100 µM (inactive) | > 100 µM (inactive) | > 100 µM (inactive) | > 100 µM (inactive) |  | > 100 µM (inactive) | > 100 µM (inactive) | > 100 µM (inactive) | > 100 µM (inactive) | > 100 µM (inactive) | > 100 µM (inactive) | > 100 µM (inactive) |
| COCOc1ccc(C(=O)C(C)c2ccc(OCOC)cc2OCOC)c(O)c1 (stereo unspecified) | 71.3 µM (inactive) |  | > 100 µM (inactive) | 42.6 µM (inactive) | > 100 µM (inactive) | > 100 µM (inactive) |  |  | 52.1 µM (inactive) | > 100 µM (inactive) | > 100 µM (inactive) |  | > 100 µM (inactive) | > 100 µM (inactive) | 52.8 µM (inactive) | 48.9 µM (inactive) | > 100 µM (inactive) |  |  |
| Cc1nn(C)c2nc3ccc(Cl)cc3c(-c3ccccc3)c12 | > 100 µM (inactive) | > 100 µM (inactive) | > 100 µM (inactive) | > 100 µM (inactive) | > 100 µM (inactive) | > 100 µM (inactive) | > 100 µM (inactive) | > 100 µM (inactive) | > 100 µM (inactive) | > 100 µM (inactive) | > 100 µM (inactive) |  | > 100 µM (inactive) | > 100 µM (inactive) | > 100 µM (inactive) | > 100 µM (inactive) | > 100 µM (inactive) | > 100 µM (inactive) | > 100 µM (inactive) |
| Cc1ccc2oc(=O)c(C(=O)Nc3nc(C45CC6CC(CC(C6)C4)C5)cs3)cc2c1 | > 100 µM (inactive) | > 100 µM (inactive) | > 100 µM (inactive) | > 100 µM (inactive) |  | > 100 µM (inactive) | > 100 µM (inactive) | > 100 µM (inactive) | > 100 µM (inactive) | > 100 µM (inactive) | > 100 µM (inactive) | > 100 µM (inactive) |  | > 100 µM (inactive) | > 100 µM (inactive) | > 100 µM (inactive) | > 100 µM (inactive) |  | > 100 µM (inactive) |
| CCCCCN1C(=O)C(Cc2ccccc2)N=C(c2ccc(O)cc2)c2cc(Cl)ccc21 (stereo unspecified) | 9.53 µM (inactive) | 10.1 µM (inactive) | 15.8 µM (inactive) | 4.09 µM (inactive) | 10.3 µM (inactive) | 22.2 µM (inactive) | 17.3 µM (inactive) | 3.23 µM (inactive) | 13.8 µM (inactive) | 8.87 µM (inactive) |  | 7.53 µM (inactive) | 18.6 µM (inactive) | 9.06 µM (inactive) | > 21.2 µM (inactive) | 6.21 µM (inactive) | > 20.7 µM (inactive) | 3.72 µM (inactive) | 17.3 µM (inactive) |
| Cc1ccc2c(c1)Nc1cc(C(F)(F)F)ccc1[PH]2=O (stereo unspecified) | 37.6 µM (inactive) | 31.5 µM (inactive) | 45.6 µM (inactive) | 11 µM (inactive) | 10.5 µM (inactive) | 21.8 µM (inactive) | 30 µM (inactive) | 13.1 µM (inactive) | 47.4 µM (inactive) | 63.5 µM (inactive) | 44.6 µM (inactive) |  | 65.2 µM (inactive) | 21.9 µM (inactive) | 41.2 µM (inactive) | 21.7 µM (inactive) | 32.8 µM (inactive) | 27.6 µM (inactive) | 13.7 µM (inactive) |
| CN(C)CCNC(=O)c1ccc2nc3c(nc2c1)C(=O)c1ccccc1-3 | 26 µM (inactive) | 81.8 µM (inactive) | > 100 µM (inactive) | 12.9 µM (inactive) | 46.5 µM (inactive) | 60.8 µM (inactive) | 55 µM (inactive) |  | > 100 µM (inactive) | 36.5 µM (inactive) | 86.9 µM (inactive) | 52.2 µM (inactive) | > 100 µM (inactive) | 26.4 µM (inactive) | 18.2 µM (inactive) | 45 µM (inactive) | 68.5 µM (inactive) |  |  |
| COc1ccc(Nc2nn3c(=O)c4c(C)c(C)sc4nc3s2)cc1 | 34.7 µM (inactive) | 44.8 µM (inactive) | 18.1 µM (inactive) | 43.2 µM (inactive) | 71 µM (inactive) | 33 µM (inactive) | 29.1 µM (inactive) | > 100 µM (inactive) | 39.3 µM (inactive) | 49.1 µM (inactive) |  | 79.1 µM (inactive) | 26.6 µM (inactive) | 42.3 µM (inactive) | 45.6 µM (inactive) | 36.1 µM (inactive) | 33.5 µM (inactive) | 25.7 µM (inactive) | 78.7 µM (inactive) |
| O=C(CCc1ccccc1CO)NCCc1ccccc1 | > 100 µM (inactive) | > 100 µM (inactive) | > 100 µM (inactive) | > 100 µM (inactive) | > 100 µM (inactive) | > 100 µM (inactive) | > 100 µM (inactive) | > 100 µM (inactive) | > 100 µM (inactive) | > 100 µM (inactive) | > 100 µM (inactive) | 20 µM (inactive) | > 100 µM (inactive) | > 100 µM (inactive) |  | > 100 µM (inactive) | > 100 µM (inactive) | > 100 µM (inactive) | > 100 µM (inactive) |
| Cc1cc(S(=O)(=O)O)ccc1/N=N/c1c(O)ccc2ccccc12 | > 100 µM (inactive) | > 100 µM (inactive) | > 100 µM (inactive) | > 100 µM (inactive) | > 100 µM (inactive) |  | > 100 µM (inactive) | > 100 µM (inactive) | > 100 µM (inactive) | > 100 µM (inactive) |  | > 100 µM (inactive) | > 100 µM (inactive) | 82.2 µM (inactive) | > 100 µM (inactive) | > 100 µM (inactive) | > 100 µM (inactive) | > 100 µM (inactive) | > 100 µM (inactive) |
| CC(=O)[C@H]1[C@H](O)C[C@@]2(C)[C@@H]3CCc4cc(O)c(OC5OC(CO)C(O)C(O)C5O)cc4C3(C)C(=O)C[C@]12C (stereo partly specified) | > 100 µM (inactive) | > 100 µM (inactive) | > 100 µM (inactive) | > 100 µM (inactive) | > 100 µM (inactive) | > 100 µM (inactive) | > 100 µM (inactive) | > 100 µM (inactive) | > 100 µM (inactive) | > 100 µM (inactive) | > 100 µM (inactive) |  | > 100 µM (inactive) | > 100 µM (inactive) | > 100 µM (inactive) | > 100 µM (inactive) | > 100 µM (inactive) | > 100 µM (inactive) | > 100 µM (inactive) |
| Nc1c(S(=O)(=O)O)cc(Nc2cccc(S(N)(=O)=O)c2)c2c1C(=O)c1ccccc1C2=O | 17.7 µM (inactive) | 71.6 µM (inactive) | > 100 µM (inactive) | > 100 µM (inactive) | 24.2 µM (inactive) | > 100 µM (inactive) | 83.9 µM (inactive) | > 100 µM (inactive) | > 100 µM (inactive) | > 100 µM (inactive) |  | 29 µM (inactive) | 27.5 µM (inactive) | 29.6 µM (inactive) | 20.3 µM (inactive) | > 100 µM (inactive) | > 100 µM (inactive) | > 100 µM (inactive) | > 100 µM (inactive) |
| Cc1nnc2sc(NN)nn12 | > 100 µM (inactive) | > 100 µM (inactive) | > 100 µM (inactive) | 17.5 µM (inactive) | 77.4 µM (inactive) | > 100 µM (inactive) | > 100 µM (inactive) | > 100 µM (inactive) | > 100 µM (inactive) | > 100 µM (inactive) |  | > 100 µM (inactive) | > 100 µM (inactive) | > 100 µM (inactive) | 43.5 µM (inactive) | > 100 µM (inactive) | > 100 µM (inactive) | > 100 µM (inactive) | > 100 µM (inactive) |
| C=C(C)[C@@H]1CC[C@@]2(C)[C@H]1[C@H]1CCC3[C@@]4(C)CC[C@H](O)C(C)(C)[C@@H]4CC[C@@]3(C)[C@]1(C)C[C@@H]2O (stereo partly specified) [CALENDULADIOL] | 23.1 µM (inactive) | 39.4 µM (inactive) | 74.8 µM (inactive) | 11.2 µM (inactive) |  | 67 µM (inactive) | 52.1 µM (inactive) | 6.61 µM (inactive) | 48.4 µM (inactive) | 41.3 µM (inactive) |  |  |  | 24.4 µM (inactive) | 43 µM (inactive) | 39.4 µM (inactive) | 87.9 µM (inactive) | > 100 µM (inactive) | 46.6 µM (inactive) |
